# Assay: Inhibition of binding to fibrinogen receptor
row,Compound,Log IC50
1,CC(C)C(C)NC(=O)C(CC(=O)O)NC(=O)CCCOc1ccc(C(=N)N)cc1 (stereo unspecified),-5.9
2,CCN(CC)C(=O)[C@@H](NC(=O)[C@H](CC(=O)O)NC(=O)CCCOc1ccc(C(=N)N)cc1)C(C)C,-6.6
3,CCCCC(NC(=O)C(CC(=O)O)NC(=O)CCCOc1ccc(C(=N)N)cc1)C(=O)O (stereo unspecified),-7.12
4,CC(C)C(NC(=O)C(CC(=O)O)NC(=O)CCCCOc1ccc(C(=N)N)cc1)C(=O)O (stereo unspecified),-6.64
5,CC[C@H](C)[C@H](NC(=O)[C@H](CC(=O)O)NC(=O)CCCOc1ccc(C(=N)N)cc1)C(=O)O,-6.85
6,CC(C)[C@H](NC(=O)[C@H](CC(=O)O)NC(=O)CCCOc1ccc(C(=N)N)cc1)C(=O)N1CCOCC1,-7.1
7,CC(C)[C@H](NC(=O)[C@H](CC(=O)O)NC(=O)CCCOc1ccc(C(=N)N)cc1)C(=O)N1CCS(=O)(=O)CC1,-7.5
8,CC(C)[C@H](NC(=O)[C@H](CC(=O)O)NC(=O)CCCOc1ccc(C(=N)N)cc1)C(N)=O,-6.2
9,CC(C)[C@H](NC(=O)[C@H](CC(=O)O)NC(=O)CCCOc1ccc(C(=N)N)cc1)C(=O)NC1CCCCC1,-6.7
10,CC(C)C(NC(=O)C(CC(=O)O)NC(=O)CCCOc1ccc(C(=N)N)cc1)C(=O)O (stereo unspecified),-6.96
11,CC(C)(C)CC(NC(=O)C(CC(=O)O)NC(=O)CCCOc1ccc(C(=N)N)cc1)C(=O)O (stereo unspecified),-6.64
12,N=C(N)c1ccc(OCCCCC(=O)NC(CC(=O)O)C(=O)NC(CO)C(=O)O)cc1 (stereo unspecified),-4.92
13,CC(C)CC(NC(=O)C(CC(=O)O)NC(=O)CCCOc1ccc(C(=N)N)cc1)C(=O)O (stereo unspecified),-6.87

# Now from value to compound:
row,Log IC50,Compound
1,-6.5,CCc1ccc(OCCNC(=O)C(CC(=O)O)NC(=O)CCCOc2ccc(C(=N)N)cc2)cc1 (stereo unspecified)
2,-5.35,COC(=O)C(Cc1ccc(O)cc1)NC(=O)C(CC(=O)O)NC(=O)CCCCOc1ccc(C(=N)N)cc1 (stereo unspecified)
3,-6.3,Cc1ccc(OCCNC(=O)C(CC(=O)O)NC(=O)CCCOc2ccc(C(=N)N)cc2)cc1C (stereo unspecified)
4,-6.8,N=C(N)c1ccc(OCCCC(=O)NC(CC(=O)O)C(=O)NC(Cc2ccc(O)cc2)C(=O)O)cc1 (stereo unspecified)
5,-6.89,COc1ccc(CC(NC(=O)C(CC(=O)O)NC(=O)CCCOc2ccc(C(=N)N)cc2)C(=O)O)cc1 (stereo unspecified)
6,-6.4,CC(C)c1ccc(OCCNC(=O)C(CC(=O)O)NC(=O)CCCOc2ccc(C(=N)N)cc2)cc1 (stereo unspecified)
7,-6.19,N=C(N)c1ccc(OCCCCC(=O)NC(CC(=O)O)C(=O)NC(Cc2ccc(O)cc2)C(=O)O)cc1 (stereo unspecified)
8,-6.57,COc1ccc(CC(NC(=O)C(CC(=O)O)NC(=O)CCCCOc2ccc(C(=N)N)cc2)C(=O)O)cc1 (stereo unspecified)
